Measured values: patent US20240115654A1, “INTRAVENOUS ADMINISTRATION OF ENGINEERED ANTIMICROBIAL AMPHIPHILIC PEPTIDES” (priority 2021, published 2024)
Values joined by “and” are separate entries in the source; they are usually repeats but may differ in a detail not shown here. Equal values may be shown once. Read-outs that look alike come from different tables or passages of the source. Peptide text beside a SMILES is read from it.

[1] = Cohort 1, 0.05 mg/kg IV infusion, Geometric Mean
[2] = Cohort 1, 0.05 mg/kg IV infusion, Max
[3] = Cohort 1, 0.05 mg/kg IV infusion, Mean
[4] = Cohort 1, 0.05 mg/kg IV infusion, Median
[5] = Cohort 1, 0.05 mg/kg IV infusion, Min
[6] = Cohort 1, 0.05 mg/kg IV infusion, cohort Geometric Mean
[7] = Cohort 1, 0.05 mg/kg IV infusion, cohort Mean
[8] = Cohort 1, 0.05 mg/kg IV infusion, cohort Median
[9] = Cohort 1, 0.05 mg/kg IV infusion, individual subject
[10] = Cohort 1, 0.05 mg/kg IV infusion, individual subjects
[11] = Cohort 3b and 4 section: over the 10-fold increase in dose
[12] = Cohort 3b and 4 section: over the […] increase in dose
[13] = Cohort 3b, […] IV infusion 2 hours, Max
[14] = Cohort 3b, […] IV infusion 2 hours, Min
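Note: phase 1 study in human subjects given one IV dose of the peptide, enrolled in sequential ascending-dose cohorts and randomized to peptide or placebo.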

With `CC(C)[C@H](NC(=O)[C@H](Cc1c[nH]c2ccccc12)NC(=O)[C@H](CCCNC(=N)N)NC(=O)[C@H](CCCNC(=N)N)NC(=O)[C@@H](NC(=O)[C@@H](NC(=O)[C@H](CCCNC(=N)N)NC(=O)[C@@H](NC(=O)[C@@H](NC(=O)[C@H](CCCNC(=N)N)NC(=O)[C@H](CCCNC(=N)N)NC(=O)[C@H](Cc1c[nH]c2ccccc12)NC(=O)[C@@H](NC(=O)[C@H](CCCNC(=N)N)NC(=O)[C@H](CCCNC(=N)N)NC(=O)[C@@H](NC(=O)[C@H](CCCNC(=N)N)NC(=O)[C@H](CCCNC(=N)N)NC(=O)[C@@H](NC(=O)[C@H](Cc1c[nH]c2ccccc12)NC(=O)[C@H](CCCNC(=N)N)NC(=O)[C@@H](N)CCCNC(=N)N)C(C)C)C(C)C)C(C)C)C(C)C)C(C)C)C(C)C)C(C)C)C(=O)N[C@@H](CCCNC(=N)N)C(=O)N[C@@H](CCCNC(=N)N)C(N)=O` [SEQ ID NO: 1] (H-RRWVRRVRRVWRRVVRVVRRWVRR-NH2) the “Plasma Concentration by Nominal Time from Start of Infusion, Mean” value (“Plasma Concentration by Nominal Time … Mean” for short) (Cohort 1, 0.05 mg/kg IV 1-hr infusion, 49 h, cohort mean) was 0.00 ng/mL, the “Plasma Concentration by Nominal Time from Start of Infusion” value (Cohort 1, 0.05 mg/kg IV 1 hr infusion, 0.0 h, individual subjects) was 0.00 ng/mL and the “Plasma Concentration by Nominal Time from Start of Infusion” value (Cohort 1, 0.05 mg/kg IV 1 hr infusion, 9.0 h, individual subjects) was 63.2 ng/mL. The “Plasma Concentration by Nominal Time from Start of Infusion” value (Cohort 1, 0.05 mg/kg IV 1 hr infusion, 13 h, individual subjects) was 32.9 ng/mL, the “Plasma Concentration by Nominal Time from Start of Infusion” value (Cohort 1, 0.05 mg/kg IV 1 hr infusion, 21 h, individual subjects) was 0.00 ng/mL and the “Plasma Concentration by Nominal Time from Start of Infusion” value (Cohort 1, 0.05 mg/kg IV 1 hr infusion, 25 h, individual subjects) was 0.00 ng/mL. For the same compound, the “Plasma Concentration by Nominal Time from Start of Infusion” value (Cohort 1, 0.05 mg/kg IV 1 hr infusion, 37 h, individual subjects) was 0.00 ng/mL, the “Plasma Concentration by Nominal Time … Mean” value (Cohort 1, 0.05 mg/kg IV 1 hr infusion, 49 h, cohort mean N 6) was 0.00 ng/mL and the “Plasma Concentration by Nominal Time from Start of Infusion” value (Cohort 1, 0.05 mg/kg IV 1 hr infusion, 49 h, individual subjects) was 0.00 ng/mL. It also gave an AUCextrap [1] of 8.36%, a CL/F [1] of 0.522 mL/min/kg and a Tlast [1] of 24 h. It also gave a λz [1] of 0.0946 h⁻¹, an AUC0-24 [2] of 1610 ng·h/mL and an AUC(0-inf) [2] of 1820 ng·h/mL. For the same compound, the AUC(0-t) [2] was 1720 ng·h/mL, the AUCextrap [2] was 12.1% and the CL/F [2] was 0.595 mL/min/kg. It also gave a Cmax [2] of 341 ng/mL, a Tlast [2] of 37 h and a t1/2 [2] of 8.59 h. The λz [2] was 0.105 h⁻¹, the AUCextrap [3] was 8.87% and the CL/F [3] was 0.525 mL/min/kg. It also gave a Tlast [3] of 25 h, a λz [3] of 0.0950 h⁻¹ and an AUCextrap [4] of 8.12%. For the same compound, the Tlast [4] was 25 h, the λz [4] was 0.0951 h⁻¹ and the AUC0-24 [5] was 619 ng·h/mL. The AUC(0-t) [5] was 515 ng·h/mL, the AUCextrap [5] was 4.54% and the CL/F [5] was 0.457 mL/min/kg. It also gave a Cmax [5] of 170 ng/mL, a Tlast [5] of 13 h and a t1/2 [5] of 6.62 h. For the same compound, the λz [5] was 0.0807 h⁻¹, the AUCextrap [6] was 8.36% and the CL/F [6] was 0.522 mL/min/kg. For the same compound, the Tlast [6] was 24 h, the λz [6] was 0.0946 h⁻¹ and the AUCextrap [7] was 8.87%. For the same compound, the CL/F [7] was 0.525 mL/min/kg, the Tlast [7] was 25 h and the λz [7] was 0.0950 h⁻¹. The AUCextrap [8] was 8.12%, the Tlast [8] was 25 h and the λz [8] was 0.0951 h⁻¹. For the same compound, the AUC(0-inf) [9] was 1490 ng·h/mL and 1800 ng·h/mL and 1820 ng·h/mL, the CL/F [9] was 0.595 mL/min/kg and 0.562 mL/min/kg and the AUC(0-inf) [10] was 1490 ng·h/mL and 1800 ng·h/mL and 1820 ng·h/mL. The Tlast [10] was 25 h (4×) and 13 h and 37 h, the CL/F (Cohort 2, […] IV infusion, Max) was 1.44 mL/min/kg and the t1/2 (Cohort 2, […] IV infusion, Max) was 15.5 h. The CL/F (Cohort 2, […] IV infusion, Mean) was 0.878 mL/min/kg, the CL/F (Cohort 2, […] IV infusion, Median) was 0.82 mL/min/kg and the CL/F (Cohort 2, […] IV infusion, Min) was 0.322 mL/min/kg. The t1/2 (Cohort 2, […] IV infusion, Min) was 7.51 h, the CL/F (Cohort 2, […] IV infusion, cohort Mean) was 0.878 mL/min/kg and the CL/F (Cohort 2, […] IV infusion, cohort Median) was 0.82 mL/min/kg. It also gave a CL/F (Cohort 3, […] IV infusion, Geometric Mean) of 0.91 mL/min/kg, a CL/F (Cohort 3, […] IV infusion, Max) of 4.3 mL/min/kg and a t1/2 (Cohort 3, […] IV infusion, Max) of 21.8 h. The CL/F (Cohort 3, […] IV infusion, Mean) was 1.4 mL/min/kg, the CL/F (Cohort 3, […] IV infusion, Min) was 0.295 mL/min/kg and the t1/2 (Cohort 3, […] IV infusion, Min) was 5.80 h. For the same compound, the CL/F (Cohort 3, […] IV infusion, cohort Geometric Mean) was 0.91 mL/min/kg, the CL/F (Cohort 3, […] IV infusion, cohort Mean) was 1.4 mL/min/kg and the “increase of AUC0-t” value [11] was 6.4 fold. The “increase of mean AUC0-24” value [11] was 5.8 fold, the “increase of mean Cmax” value [11] was 7.1 fold and the “increase of AUC0-t” value [12] was 4.2 fold. For the same compound, the “increase of mean AUC0-24” value [12] was 3.7 fold, the “increase of mean Cmax” value [12] was 3.7 fold and the CL/F (Cohort 3b, […] IV infusion 2 hours, Geometric Mean) was 0.748 mL/min/kg. It also gave a CL/F [13] of 1.36 mL/min/kg, a t1/2 [13] of 17.5 h and a CL/F (Cohort 3b, […] IV infusion 2 hours, Mean) of 0.795 mL/min/kg. The CL/F (Cohort 3b, […] IV infusion 2 hours, Median) was 0.76 mL/min/kg, the CL/F [14] was 0.415 mL/min/kg and the t1/2 [14] was 9.72 h. For the same compound, the CL/F (Cohort 3b, […] IV, infusion 2 hours, cohort Geometric Mean) was 0.748 mL/min/kg, the CL/F (Cohort 3b, […] IV, infusion 2 hours, cohort Mean) was 0.795 mL/min/kg and the CL/F (Cohort 3b, […] IV, infusion 2 hours, cohort Median) was 0.76 mL/min/kg. For the same compound, the “Plasma Concentration by Nominal Time … Mean” value (Cohort 4, 0.5 mg/kg IV 2-hr infusion, 0.0 h, cohort mean) was 0.00 ng/mL, the AUCextrap (Cohort 4, 0.5 mg/kg IV infusion 2 hours, Geometric Mean) was 7.38% and the AUC0-24 (Cohort 4, 0.5 mg/kg IV infusion 2 hours, Max) was 10400 ng·h/mL.
